Assay results: US20210348124A1, “SEBACEOUS GLAND ORGANOIDS AND USE THEREOF” (TECHNION RESEARCH & DEVELOPMENT FOUNDATION LIMITED, priority 2018, published 2021)

How the values were obtained:
Format in all cases: cell-based, mouse
DBL-treated organoids [1] = assay: Drug treatment of DBL-treated SG organoids (size, ORO, Ki67, cell size); details: for organoid size: then drug for three days
Text: With a system that recapitulates important aspects of acne vulgaris, the extent that currently prescribed medications could affect its development was examined. Retinoids are derivatives of vitamin A, which serve as the first-line treatment for acne. Specifically, all-trans-Retinoic acid (ATRA; Tretinoin), formulated ATRA (Ret-Avit) and 13-cis RA (Isotrtinoin) are used worldwide. […] The differentiation program in the SG is a multi-step process. Cells prior to the onset or during early stage of differentiation express AR, which is known to reside upstream and lead to the expression of F[…]. […] Therefore, it was hypothesized that inhibition of c-Myc could serve as a beneficial treatment of acne vulgaris. For this aim, the 10058-F4 c-Myc inhibitor was administered to DBL-treated organoids and size, proliferation and differentiation were monitored.

[2] = tested on: Blimp1−YFP+-derived sebaceous gland organoids; assay: SG organoids treated with c-Myc inhibitor: size, cell size/number, proliferation, lipid staining
Experimental: For organoid generation a total of ˜1000 cells were mixed with 50 μl of Matrigel (BD Bioscience) and plated in 24-well plates. After polymerization of Matrigel, 500 μl of HFSC media containing growth factors; 20 ng ml-1 hFGF (Peprotech), 40 ng ml-1 mEGF (Peprotech), 500 ng ml-1 hR-spondin 1, 100 ng ml-1 mNoggin (Peprotech) and B-27 Supplement (50×) (Invitrogen)) was added. Organoid treatment with cMyc inhibitor 10058-F4 (50 Tocris Bioscience) or DMSO (as control) was performed for 4 days and renewed upon media change. Organoids were fixed in 4% PFA for 1 hour for immunofluorescence analysis or harvested for RNA extraction. Antibody staining was visualized using secondary antibodies conjugated to Alexa Fluor-488, Alexa Fluor-546, and Alexa Fluor-633. Analysis was performed on Zeiss LSM 880 confocal microscope. Oil-red-O (ORO) staining was performed by incubating samples in 0.18% ORO for 20 min and washing with PBS. Next, the effect of inhibiting c-Myc activity by administering the specific c-Myc inhibitor, 10058-F4 was monitored. […] Six-day old SG organoids were supplemented with the c-Myc inhibitor for 4 days. […] Since the effect on organoid size could result from either altered cell size or number both scenarios were examined. […] Whether the effect of c-Myc inhibition originates from an effect on cell proliferation and/or differentiation was examined next. Employing IF staining with two proliferative markers, Ki67 and MCM2, indicated a significant decline in Ki67+ (69%) and MCM2+ (72%) proliferative cells (FIG. 4J-L). […] This is in line with the reported role of c-Myc in regulating differentiation in the SG in vivo. […] Next, using Real time (RT)-PCR analysis, the levels of transcripts that are expressed in either SG differentiating or differentiated cells, which play a key role in this process were examined. Inhibition of c-Myc decreased the levels of all examined factors including Androgen Receptor (AR) and fatty acid synthase (FASN) (FIG. 4O).

[3] = tested on: Blimp1−YFP+-derived sebaceous gland organoids; assay: Real-time PCR of sebocyte differentiation markers in c-Myc inhibitor-treated SG organoids; details: RT-PCR, inhibitor for 4 days
Experimental: Organoid treatment with cMyc inhibitor 10058-F4 (50 Tocris Bioscience) or DMSO (as control) was performed for 4 days and renewed upon media change. Organoids were fixed in 4% PFA for 1 hour for immunofluorescence analysis or harvested for RNA extraction.
(§1) RNA extraction, reverse transcription and real-time PCR: RNA was isolated using Trizol (Sigma) and up to 2 μg of RNA were subjected to cDNA synthesis (Applied Biosystems). Real time PCR was carried out using the PerfeCTa SYBR Green FastMix (Quanta), with the following gene-specific primers: RpLO: […] (SEQ ID NO: 1) and ATCTGCTTGGAGCCCACAT (SEQ ID NO: 2); AR: […] (SEQ ID NO: 3) and […] (SEQ ID NO: 4); PPAR-gamma: […] (SEQ ID NO: 5) and […] (SEQ ID NO: 6); PPAR-beta: TTCCTTCCAGCAGCTGTG (SEQ ID NO: 7) and TCGCACGCGTGGACC (SEQ ID NO: 8); FASN: […] (SEQ ID NO: 9) and […] (SEQ ID NO: 10). Amplicon levels were analyzed in triplicate and quantitated relative to a standard curve comprising cDNA, and values normalized to levels of the housekeeping gene (Rpl0). Reactions were: 3 min at 95° C., then 40 cycles of 10 sec at 95° C. and 30 sec at 60° C. with addition of melt curve step: 10 sec at 95° C., and increments of 0.5° C. every 5 sec between 65° C. and 95° C.
This is in line with the reported role of c-Myc in regulating differentiation in the SG in vivo. […] Next, using Real time (RT)-PCR analysis, the levels of transcripts that are expressed in either SG differentiating or differentiated cells, which play a key role in this process were examined. Inhibition of c-Myc decreased the levels of all examined factors including Androgen Receptor (AR) and fatty acid synthase (FASN) (FIG. 4O).

DBL-treated organoids [4] = assay: RT-PCR of DBL-treated SG organoids after drug treatment; details: then drug
Experimental: as §1
The differentiation program in the SG is a multi-step process. Cells prior to the onset or during early stage of differentiation express AR, which is known to reside upstream and lead to the expression of FASN35.
Retinols, such as 13-cis RA, are known to have severe side-effects and concerns have been raised regarding the teratogenicity of these compounds. This highlights the immediate need for alternative treatments. […] Therefore, it was hypothesized that inhibition of c-Myc could serve as a beneficial treatment of acne vulgaris. For this aim, the 10058-F4 c-Myc inhibitor was administered to DBL-treated organoids and size, proliferation and differentiation were monitored.

SG organoids = assay: Acne vulgaris model: DHT, BRL, LIN administered to SG organoids (size, ORO, Ki67); details: administration to organoids (single agents for 7 days; combinations)
Experimental: Therefore, as a first step, the potent dihydrotestosterone (DHT) androgen, the PPAR-γ BRL-49653 (BRL) activator and linoleic acid (LIN) known to activate PPAR-B38 were administered to organoids.

SG organoid = SG organoid as model organ to test drugs (caspase-3 inhibitors, Tretinoin); details: for attenuation of SG organoid size: 100 uM, after 72 hours
Experimental: Organoids were generated as described herein and treated with two caspase-3 inhibitors (zDEVD-fmk at 100 uM and […] at 100 uM) to assess their effect on the SG. A known anti-acne drug, Tretinoin (10-100 uM) was also added as a positive control.

[5] = tested on: freshly isolated α6+; ScaI−; Blimp1−YFP+ cells; assay: Organoid generation from primary cells directly seeded in Matrigel with ROCK inhibitor; details: cultures supplemented with ROCK inhibitor and GFs
Text: It was next examined if these Blimp1+ cell-derived organoids could be generated by isolating primary α6+; ScaI−; Blimp1−YFP+ cells and directly seeding them into Matrigel without a pre-culturing phase. […] Thus, these cultures were supplemented with a ROCK inhibitor (Y27632), which prevents cell-cell interaction-dependent anoikis.

[6] = IF staining, inhibitor for 4 days
[7] = six-day old SG organoids, inhibitor for 4 days

CC1=C(/C=C/C(C)=C/C=C/C(C)=C\C(=O)O)C(C)(C)CCC1 [13-cis RA, 13-cis-Retinoic acid] was tested, and the “number of ORO+ cells” value (DBL-treated organoids [1]; then drug) was “heightened number” and the organoid size (DBL-treated organoids [1]) was “significant decrease”.

CCc1ccc(C=C2SC(=S)NC2=O)cc1 [10058-F4, 5-[(4-Ethylphenyl)methylene]-2-thioxo-4-thiazolidinone] was tested, and the “decline in Ki67+ proliferative cells” value [2, 6] was 69%, the “decline in MCM2+ proliferative cells” value [2, 6] was 72% and the “lipid levels (ORO dye staining)” value ([2]; inhibitor for 4 days) was “significant decrease”. For the same compound, the “decrease in organoid size” value ([2]; six-day old SG organoids, c-Myc inhibitor for 4 days, vs DMSO control) was about 40%, the “decline in cell diameter, cells in the inner compartment” value [2, 7] was about 40% and the “diameter of individual cells in the outer proliferating layer of the organoid” value [2, 7] was “modest size decrease”. For the same compound, the “localization of c-Myc” value [2, 7] was “did not affect”, the “number of cells in the outer ring of the organoids” value [2, 7] was “decreased” and the “Androgen Receptor (AR) transcript level” value [3] was “decreased”. The PPAR-β transcript level [3] was “significantly attenuated”, the PPAR-γ transcript level [3] was “significantly attenuated” and the “fatty acid synthase (FASN) transcript level” value [3] was “decreased”. For the same compound, the “decrease in the number of Ki67+ cells” value (DBL-treated organoids [1]; then drug) was “more than 80%”, the “number of ORO+ cells” value (DBL-treated organoids [1]; then drug) was “significant decrease” and the “size of individual inner cells” value (DBL-treated organoids [1]; then drug) was “decrease”. The organoid size (DBL-treated organoids [1]) was “significant decrease”, the “expression levels of lipid synthesis genes” value (DBL-treated organoids [4]) was “significantly lower” and the “mRNA level of Cyclin D1” value (DBL-treated organoids [4]) was “significant decrease”. The “mRNA level of c-Myc” value (DBL-treated organoids [4]) was “significant decrease”.

In the case of C[C@]12CCC(=O)C[C@@H]1CC[C@@H]1[C@@H]2CC[C@]2(C)[C@@H](O)CC[C@@H]12 [DHT, dihydrotestosterone], the “size of individual SG organoids” value (SG organoids) is reported as “significantly increased”.

In the case of CC(=O)OCCN1C(=O)c2c(C)nc3ccc(S(=O)(=O)N4CCOCC4)cc3c2C1=O [Ivachtin], the “attenuation of SG organoid size” value (SG organoid) is reported as “about 30%”.

For CCCCC/C=C\C/C=C\CCCCCCCC(=O)O [LIN, linoleic acid], the “size of individual SG organoids” value (SG organoids) was “significantly increased”.

With CC1=C(/C=C/C(C)=C/C=C/C(C)=C/C(=O)O)C(C)(C)CCC1 [Tretinoin, all-trans-Retinoic acid] the “reduction of SG organoid size compared with the caspase-3 inhibitors” value (SG organoid; 10-100 uM, positive control) was “very similar”, the “number of ORO+ cells” value (DBL-treated organoids [1]; then drug) was “heightened number” and the organoid size (DBL-treated organoids [1]) was “significant decrease”.

For C[C@@H](N)[C@H]1CC[C@H](C(=O)Nc2ccncc2)CC1 [Y27632], the “organoid generation from primary cells seeded into Matrigel without pre-culturing” value [5] was “able to give rise to organoids, although at a lower efficiency”.

COC(=O)CC[C@H](NC(=O)[C@H](CC(=O)OC)NC(=O)OCc1ccccc1)C(=O)N[C@H](C(=O)N[C@@H](CC(=O)OC)C(=O)CF)C(C)C [zDEVD-fmk] was tested, and the “attenuation of SG organoid size” value (SG organoid) was “about 30%”, the “cells positive for Ki67” value (SG organoid; caspase-3 inhibitor treatment) was “greatly reduced” and the “cells positive for MCM2” value (SG organoid; caspase-3 inhibitor treatment) was “greatly reduced”.
